Reference: US20040019092A1, “Non-peptide somatostatin receptor ligands” (priority 2001, published 2004)
Several values for one entry are separate records, joined by “and”; a condition that tells them apart may be missing. Identical values can stand only once.

Assays:
GH secretion [1] = test: GH secretion in vivo, rat, subcutaneous application, 1 h (basal); conditions: rat, basal GH secretion, 1 h after subcutaneous application
Procedure: (§1) Animals, anesthesia: Male rats of a Sprague Dawley strain (Ico:OFA-SD, Iffa-Credo, F-Lyon) of 200-300 g body weight were used. They were kept under standardized conditions and were anesthetized with pentobarbital-sodium (Siegfried, CH Zofingen), 60 mg/kg i.p. for subcutaneous and intraduodenal applications. Animals designed for an infusion experiment were anesthetized with urethane (Siegfried, CH Zofingen), 1.2 g/kg i.p.
(§2) Compounds: The compounds were dissolved, optionally with the aid of one or more of the following adjuncts:
(§3) Stock solutions of the compounds were prepared in water with the addition of the necessary adjunct(s). Further dilutions were prepared allowing 5 mL/kg for subcutaneous application, 2 mL for intraduodenal (i.d.) application or 4.5 mL/kg for intravenous infusion. The solutions for the intravenous application/infusion were made isotonic by addition of glucose to a final concentration of 5%.
(§4) Applications were made, or, in the case of infusion, started, approximately 10 minutes after induction of anesthesia. No further treatment followed subcutaneous or intraduodenal application. Ten, twenty-five and fifty-five minutes after start of the intravenous infusion the GH secretion was stimulated with repeated intravenous injections of the potent GHRH analog, D-Ala2 GHRH1-29NH2, 1 μg/kg.
(§5) One hour after subcutaneous or intraduodenal application of the compounds, blood was collected from the trunk after decapitation. In the case of application by infusion, 5 minutes after each application of GHRH, a blood sample of 0.8 mL was taken from a V. jugularis and mixed with EDTA (Eppendorf tubes TOM14, Milian, CH Geneva). The blood samples were kept on ice and spun in a cooled centrifuge. The serum or plasma was separated and frozen.
(§6) Statistics: In each experiment, 4-5 animals were used per dose, with 6 to 8 animals as the control group that received the vehicle. The GH serum/plasma levels were averaged, the mean of the treated groups expressed in percent of the control group and the ID50-value for the inhibition of the secretion was determined graphically (log-probit) for each experiment. In most experiments with enteral (intraduodenal) application only 1 dose, 10 mg/kg, was given. […] Only inhibitions between 20 and 80% were considered reliable.
(§7) Two to four experiments were performed. In the case of proper dose response curves, allowing the determination of an ID50 values were averaged logarithmically. In the cases of single dose-experiments, the GH value in percent of control were averaged logarithmically and the ID50 for this value was taken from the table. ID50 values determined at the different time points during the infusion were averaged and this value was included in the tables.

GH secretion [2] = test: GH secretion in vivo, rat, intraduodenal (enteral) application, 1 h (basal); conditions: for GH vivo i.d. 1 h ID50: basal GH secretion, 1 h after intraduodenal application, mostly approximate ID50 from single 10 mg/kg dose, Ø = no effect at this dose, > = extrapolated value; for enteral ID50 (GH secretion): enteral (intraduodenal) application
Procedure: as §1, §2, §3, §4, §5, §6, §7

[3] = system: GHRH stimulated GH secretion; test: GH secretion in vivo, rat, intravenous infusion with repeated GHRH stimulation; conditions: for INFUS. + GHRH ID50 MEAN: Table 4, mean of infusion time points; for INFUS. + GHRH ID50 15′ / INFUS. + GHRH ID50 30′ / INFUS. + GHRH ID50 60′: Table 4, urethan; for GH vivo Inf + GHRH ID50 (mean of time points): urethane, i.v. infusion, GHRH stimulated
Procedure: as §1, §3, §4, §5, §6, §7

[4] = system: GHRH stimulated GH secretion; test: GH secretion, rat in urethan anesthesia, subcutaneous + repeated GHRH stimulation; format: in vivo
Procedure: as §4
(§8) With most of these selected compounds additional in vivo experiments in other models (intraduodenal application followed by repeated stimulation of the GH secretion by GHRH, oral application by gavage of unanesthetized, estradiol primed rats) were performed. Table 4 summarizes data obtained for the inhibition of the stimulated GH secretion after subcutaneous, intraduodenal and intravenous application and the inhibitory effects obtained for different time points during intravenous infusion of selected hydantoins.

[5] = system: GHRH stimulated GH secretion; test: GH secretion, rat in urethan anesthesia, intraduodenal + repeated GHRH stimulation; format: in vivo; conditions: for INTRADUODENAL + GHRH ID50 15′ / INTRADUODENAL + GHRH ID50 30′ / INTRADUODENAL + GHRH ID50 60′ / INTRADUODENAL + GHRH ID50 120′: urethan; for INTRADUODENAL + GHRH ID50 15′ / INTRADUODENAL + GHRH ID50 120′: ø = no effect at this dose
Source text: as §8, with “No further treatment followed subcutaneous or intraduodenal application. […] This value has been determined in a total of four independent experiments. […] However, in further studies compound 47 has also been tested by the enteral route of administration after repeated stimulation of the GH secretion by GHRH. […] With” for “With”, “hydantoins. […] [table]” for “hydantoins.”

[6] = system: GHRH stimulated GH secretion; test: GH secretion, rat in urethan anesthesia, i.v. single injection + repeated GHRH stimulation; format: in vivo
GH secretion [7] = test: Unanesthetized estradiol primed male rats, oral by gavage: GH; format: in vivo, rat; conditions: for GH 1 H ID50 / MEAN ID50 (GH and prolactin): estradiol implant male rats, oral by gavage, 1 hour
Procedure: The inhibitory effect of the compounds on GH release may also be examined after oral application to male rats with oestradiol implants. This test is carried out as follows.
A loop (length 50 mmØ3 mm) of silastic with 50 mg of oestradiol is implanted under the dorsal skin of anaesthetized male OFA rats that have a weight of ca. 300 g. At various times (1 to 6 months later), these animals, in a fasted state, are used repeatedly for tests. The test substances are active in this test at doses from 0.1 to 5 mg/kg, when GH level in the blood serum is determined by radio-immunoassay 1 and 2 hours after oral administration.
(§9) Table 5 summarizes the results obtained in the estradiol primed male rats that received the compounds orally by gavage. These rats have stabilized elevated GH plasma levels as well as increased prolactin levels. In contrast to normal untreated rats, who's prolactin secretion is not sensitive to the inhibitory effect of somatostain, in these rats the prolactin secretion is inhibited to a similar degree as the GH secretion. Therefore, the inhibitory effect can be measured on 2 different parameters, GH and prolactin. The mean enteral absorption and activity of the respective compounds are shown.

prolactin secretion = test: Unanesthetized estradiol primed male rats, oral by gavage: prolactin; format: in vivo, rat; conditions: for PROLACT 1 H ID50: estradiol implant male rats, oral by gavage, ø = no effect at this dose
Source text: as §9

[8] = target: T1, human sst2 receptor sub-type (Homo sapiens, UniProt P30874); test: In vitro binding, human sst2 receptor sub-type (SSTR2); conditions: Tables 8/9: Bind SSTR2 nM
T1 construct: host or cells: SRIF receptor expressing cell cultures (general statement only)
T1 sequence (P30874 whole entry): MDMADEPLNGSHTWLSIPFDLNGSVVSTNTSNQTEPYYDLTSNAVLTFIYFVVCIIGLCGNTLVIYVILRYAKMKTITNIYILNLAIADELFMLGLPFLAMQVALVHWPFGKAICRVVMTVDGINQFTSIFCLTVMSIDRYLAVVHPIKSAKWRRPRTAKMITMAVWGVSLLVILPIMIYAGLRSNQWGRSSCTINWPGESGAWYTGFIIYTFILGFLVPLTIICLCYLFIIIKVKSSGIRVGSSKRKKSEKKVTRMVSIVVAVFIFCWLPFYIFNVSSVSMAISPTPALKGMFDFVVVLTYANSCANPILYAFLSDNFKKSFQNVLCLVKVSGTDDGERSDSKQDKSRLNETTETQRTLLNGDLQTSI
Procedure: The in vitro binding affinities for rat cortex SRIF receptors and the human sst2 receptor sub-type was assessed. Further the in vitro inhibition of the GHRH induced GH secretion in primary cultures of rat pituitary cells as well as the in vivo inhibition of GH secretion in the rat after systemic or enteral application was studied. […] Therefore, the in vivo activities of the compounds in rats with respect to inhibition of growth hormone release was also assessed. Most compounds selected were tested by enteral—intraduodenal (i.d.) application. For determination of the absolute activity and for the calculation of an enteral bioavailability, single subcutaneous (s.c.) application of intravenous (i.v.) infusion was used.

[9] = system: GHRH induced GH secretion in primary cultures of rat pituitary cells; test: In vitro inhibition of GHRH induced GH secretion (GH vitro +GHRH); format: cell-based
SS1 = SS1 (Rattus norvegicus, UniProt P30680); test: SS-1 binding (Bind SS1 D.H.)
Sequence of SS1 (P30680 whole entry): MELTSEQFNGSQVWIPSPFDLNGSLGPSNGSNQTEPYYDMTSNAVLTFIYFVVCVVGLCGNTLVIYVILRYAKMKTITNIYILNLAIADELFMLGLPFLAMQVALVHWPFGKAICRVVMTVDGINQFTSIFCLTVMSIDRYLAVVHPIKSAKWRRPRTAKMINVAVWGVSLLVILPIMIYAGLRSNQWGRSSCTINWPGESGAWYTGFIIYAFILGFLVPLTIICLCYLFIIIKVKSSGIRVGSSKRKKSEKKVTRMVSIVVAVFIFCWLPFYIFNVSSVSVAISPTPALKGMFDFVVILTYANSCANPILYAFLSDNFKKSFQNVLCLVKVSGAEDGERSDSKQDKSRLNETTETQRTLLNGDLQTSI

IC50 [8] [nM] | SMILES | GH vivo s.c. 1 h ID50 (GH secretion [1]) [µg/kg] | GH vivo i.d. 1 h ID50 (GH secretion [2]) | enteral ID50 (GH secretion) (GH secretion [2]) [µg/kg] | INFUS. + GHRH ID50 MEAN [3] [µg/kg] | INFUS. + GHRH ID50 15′ ([3]; 15′ of infusion) [µg/kg] | INFUS. + GHRH ID50 30′ ([3]; 30′ of infusion) [µg/kg] | INFUS. + GHRH ID50 60′ ([3]; 60′ of infusion) [µg/kg] | GH vivo Inf + GHRH ID50 (mean of time points) [3] [µg/kg/h] | SUBCUTANEOUS + GHRH ID50 15′ [4] [µg/kg] | SUBCUTANEOUS + GHRH ID50 30′ [4] [µg/kg] | SUBCUTANEOUS + GHRH ID50 60′ [4] [µg/kg] | INTRADUODENAL + GHRH ID50 15′ [5] [µg/kg] | INTRADUODENAL + GHRH ID50 30′ [5] [µg/kg] | INTRADUODENAL + GHRH ID50 60′ [5] [µg/kg] | INTRADUODENAL + GHRH ID50 120′ [5] [µg/kg] | GH 1 H ID50 (GH secretion [7]) [µg/kg] | MEAN ID50 (GH and prolactin) (GH secretion [7]) [µg/kg] | PROLACT 1 H ID50 (prolactin secretion) [µg/kg] | other results
 | Cc1cccc2c(CC3C(=O)N(CCCCCN)C(=O)N3S(=O)(=O)c3ccc(Oc4ccc(O)c(Cl)c4)c(C(=O)N(C)C)c3)c[nH]c12 (racemic) [(+/−)-43] | 3.79 | 3417 µg/kg | 3400 | 3.72 | 6.44 | 3.58 | 2.24 | 3.72 | 7.05 | 7.95 | 11.35 | 1165 | 1646 | 1419 | 2872 | 3000 | 2324 | 1800 | inhibition at 10 mg/kg (GH secretion [2]; intraduodenal, enteral administration of 10 mg/kg): 68%; SUBCUTANEOUS + GHRH ID50 120′ ([4]; 120′): 15.69 µg/kg; I.V. SINGLE INJECTION + GHRH ID50 15′ ([6]; 15′): 12.50 µg/kg; I.V. SINGLE INJECTION + GHRH ID50 30′ ([6]; 30′): 31.20 µg/kg; I.V. SINGLE INJECTION + GHRH ID50 60′ ([6]; 60′): 55.00 µg/kg; I.V. SINGLE INJECTION + GHRH ID50 120′ ([6]; 120′): 124.10 µg/kg; oral ID50 (GH) (GH secretion [7]; estradiol primed male rats): 3000 µg/kg; oral ID50 (prolactin) (prolactin secretion; estradiol primed male rats): 1800 µg/kg
0.18 | Cc1cccc2c(CC3C(=O)N(CCCCCN)C(=O)N3S(=O)(=O)c3ccc(Oc4ccc(O)c(Cl)c4)c(C(=O)N(C)C)c3)c[nH]c12 (single isomer, unassigned; (+)) [(+)-43] | 3.0 | 4800 µg/kg |  | 1.68 | 2.28 | 1.54 | 1.35 | 1.68 |  |  |  |  |  |  |  |  |  |  | GH vivo s.c. 1 h ID50 (GH secretion [1]; listed as (+)−43): 3.00 µg/kg; GH vivo s.c. 1 h ID50 (GH secretion [1]; listed as (+)−43 ch): 3.00 µg/kg
0.38 | Cc1cccc2c(CC3C(=O)N(CCCCC(C)(C)N)C(=O)N3S(=O)(=O)c3ccc(Oc4ccc(O)c(Cl)c4)c(C(=O)N(C)C)c3)c[nH]c12 (stereo not drawn) [Compound 47] | 10.00 | ˜454 μg/kg | 500 |  |  |  |  | 8.10 |  |  |  |  |  |  |  |  |  |  | enteral bioavailability (from ID50 ratio) (GH secretion [2]; intraduodenal 1 hour vs parenteral ID50): 1.8%; bioavailability calculated in the GHRH stimulated enteral model [5]: 0.3%; enteral ID50 after repeated stimulation of the GH secretion by GHRH ([5]; 1 hour): ~2600 µg/kg
2.5 | CN(C)C(=O)c1cc(S(=O)(=O)N2C(=O)N(CCCCCN)C(=O)C2Cc2c[nH]c3ccccc23)ccc1Oc1ccc(OC(=O)C(N)CCCCN)c(Cl)c1 (stereo not drawn) [Compound 48] |  | > 15000 µg/kg |  |  |  |  |  | 32.00 |  |  |  |  |  |  |  | 11000 | 9950 | 9000 | GH inhibition by the enteral route (GH secretion [2]; 10 mg/kg enteral): exhibited inhibition
 | C[C@@H](O)[C@@H]1NC(=O)[C@H](CCCCN)NC(=O)[C@@H](Cc2c[nH]c3ccccc23)NC(=O)[C@H](Cc2ccccc2)NC(=O)[C@@H](NC(=O)[C@H](N)Cc2ccccc2)CSSC[C@@H](C(=O)N[C@H](CO)[C@@H](C)O)NC1=O [Octreotride, Octreotide, reference compound] | 0.13 | 125 µg/kg |  | 0.12 | 0.16 | 0.11 | 0.10 |  | 0.15 | 0.15 | 0.26 | 24.2 | 16.6 | 26.8 | 82.0 | 440 | 663 | 998 | IC50 [9]: 1.3 nM; GH, Ur Inf15′ +GHRH ([3]; Tables 8/9, urethane, 15′ of infusion): 0.124 µg/kg/h; GH, UR Inf30′ +GHRH ([3]; Tables 8/9, urethane, 30′ of infusion): 0.082 µg/kg/h; GH, UR Inf60′ +GHRH ([3]; Tables 8/9, urethane, 60′ of infusion): 0.085 µg/kg/h; GH vivo Inf + GHRH ID50 (mean of time points) ([3]; listed as Octreotride ac): 0.12 µg/kg/h and 0.096 µg/kg/h; GH vivo Inf + GHRH ID50 (mean of time points) ([3]; listed as octreotride ac): 0.096 µg/kg/h; Bind SS1 D.H. (SS1): 0.30 nM
 | C[C@H](N)C(=O)NCC(=O)N[C@H]1CSSC[C@@H](C(=O)O)NC(=O)[C@H](CO)NC(=O)[C@H]([C@@H](C)O)NC(=O)[C@H](Cc2ccccc2)NC(=O)[C@H]([C@@H](C)O)NC(=O)[C@H](CCCCN)NC(=O)[C@H](Cc2c[nH]c3ccccc23)NC(=O)[C@H](Cc2ccccc2)NC(=O)[C@H](Cc2ccccc2)NC(=O)[C@H](CC(N)=O)NC(=O)[C@H](CCCCN)NC1=O [SRIF14, somatostatin 14, reference compound] |  |  |  | 3.90 | 6.00 | 3.35 | 2.90 |  |  |  |  |  |  |  |  |  |  |  | 
